Data on 6 compounds can be found in ChEMBL document CHEMBL1152052, “Probing the P3 pocket of stromelysin with piperazic acid analogs” (Bioorg Med Chem Lett, 1995).

Chain of Stromelysin-1 (P08254 whole entry): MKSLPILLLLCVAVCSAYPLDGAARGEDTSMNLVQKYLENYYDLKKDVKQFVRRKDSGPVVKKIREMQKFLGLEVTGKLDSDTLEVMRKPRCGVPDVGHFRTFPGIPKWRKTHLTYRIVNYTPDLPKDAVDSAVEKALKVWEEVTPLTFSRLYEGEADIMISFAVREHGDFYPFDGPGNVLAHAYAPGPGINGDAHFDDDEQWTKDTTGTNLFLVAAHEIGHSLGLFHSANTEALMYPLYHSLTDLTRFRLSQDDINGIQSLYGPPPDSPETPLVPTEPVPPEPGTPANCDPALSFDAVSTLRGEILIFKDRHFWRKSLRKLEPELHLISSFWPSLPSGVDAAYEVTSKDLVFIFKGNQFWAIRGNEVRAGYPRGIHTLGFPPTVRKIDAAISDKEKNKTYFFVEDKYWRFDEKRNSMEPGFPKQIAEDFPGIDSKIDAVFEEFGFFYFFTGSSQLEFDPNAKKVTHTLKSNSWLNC

This assay concerns the target Stromelysin-1 (Homo sapiens, UniProt P08254). Put plainly: Inhibition of matrix metalloprotease-3 (MMP-3).
What is called IC50 is the concentration at which inhibition is half-maximal. Read a high IC50 as weaker potency in that assay. `COC(=O)[C@@H]1CCCNN1C(=O)[C@@H](CC(=O)NO)CC(C)C` displayed an IC50 of 0.81 µM.

The compound `CCCCC[C@H](CC(=O)NO)C(=O)N1NCCC[C@H]1C(=O)N[C@@H](C(=O)CC)C(C)CC` (stereo partly specified) had a half-inhibitory concentration (IC50) of 0.3 µM. Against the preceding compound, the IC50 is about 2.7-fold lower. In turn, `COC[C@@H]1CCCNN1C(=O)[C@@H](CC(=O)NO)CC(C)C` showed an IC50 of 20.4 µM. Consider `CC(C)C[C@H](CC(=O)NO)C(=O)N1NCCC[C@H]1C(=O)O`, for which the 50% inhibitory concentration (IC50) came out at 0.6 µM. Compared with the last compound, the IC50 is about 34-fold lower. `CC(C)C[C@H](CC(=O)NO)C(=O)N1NCCC[C@H]1CO` displayed an IC50 of 2.7 µM. The figure for `CC(C)C[C@H](CC(=O)NO)C(=O)N1CCCCN1` is 9.67 µM.
